{"source": "patent US9913905B2", "about": "(EAGLE BIOLOGICS, INC., priority 2013, dated 2018)", "key": {"[1]": {"system": "biosimilar AVASTIN®", "test": "Viscosity of concentrated aqueous solutions of biosimilar AVASTIN® (mVROC microfluidic viscometer)", "type": "physicochemical", "protocol": "All viscosities of well-mixed aqueous mAb solutions were measured using either a mVROC microfluidic viscometer (RheoSense) or a DV2T cone and plate viscometer (Brookfield; “C & P”) after a 5 minute equilibration at 25° C. (unless otherwise indicated). The mVROC viscometer was equipped with an “A” or “B” chip, each manufactured with a 50 micron channel. Typically, 0.10 mL of protein solution was back-loaded into a gastight microlab instrument syringe (Hamilton; 100 μL), affixed to the chip, and measured at multiple flow rates, approximately 20%, 40%, and 60% of the maximum pressure for each chip. […] An average absolute viscosity and standard deviation was then calculated from at least these three measurements. The C & P viscometer was equipped with a CPE40 or CPE52 spindle (cone angle of 0.8° and 3.0°, respectively) and 0.50 mL samples were measured at multiple shear rates between 2 and 400 s^−1. […] An extrapolated zero-shear viscosity was then determined from a plot of dynamic viscosity versus shear rate for the samples measured on a DV2T cone and plate viscometer. The extrapolated zero-shear viscosities reported are the average and standard deviation of at least three measurements.\nFirst, Polysorbate 20 was removed using DETERGENT-OUT® TWEEN Medi Columns (G-Biosciences). […] Then, an appropriate amount of viscosity-reducing organophosphate solution (pH 7.0) was added to each aliquot such that upon reconstitution with water, the final excipient concentration was 0.10-0.25 M. The protein solutions were then freeze-dried. The dried protein cakes, containing protein and viscosity-reducing organophosphate (and a negligible amount of buffer salts) were reconstituted to a final volume of approximately 0.1 mL and viscosity-reducing organophosphate concentration as previously described. […] The dried protein cakes, containing protein and buffer salts were reconstituted to a final volume of approximately 0.10-0.50 mL. […] Viscosities reported were measured on a RheoSense mVROC microfluidic viscometer.\nViscosities reported were measured on a RheoSense mVROC microfluidic viscometer."}, "[2]": {"system": "REMICADE®", "test": "Viscosity of concentrated aqueous solutions of […]® (mVROC microfluidic viscometer)", "type": "physicochemical"}, "[3]": {"system": "HERCEPTIN®", "test": "Viscosity of concentrated aqueous solutions of HERCEPTIN® (mVROC microfluidic viscometer)", "type": "physicochemical", "details": "organophosphate 0.25M"}, "[4]": {"system": "biosimilar ERBITUX®", "test": "Viscosity of concentrated aqueous solutions of biosimilar ERBITUX® (mVROC microfluidic viscometer)", "type": "physicochemical", "details": "Biosimilar ERBITUX® 215 mg/mL; excipient 0.25M"}, "[5]": {"system": "biosimilar RITUXAN®", "test": "Viscosity of concentrated aqueous solutions of biosimilar RITUXAN® (mVROC microfluidic viscometer)", "type": "physicochemical", "details": "organophosphate 0.10M", "procedure": "(unless otherwise indicated).\nA commercially-obtained biosimilar AVASTIN® (100-400 mg) containing pharmaceutical excipients (Polysorbate 20, phosphate and citrate buffers, mannitol, and NaCl) was purified. […] Samples buffer exchanged into 2 mM PB were first aliquoted. […] For samples buffer exchanged into 20 mM PB (PB control samples), the collected protein solution was freeze-dried. […] Using the same protocol, formulations containing biosimilar ERBITUX®, TYSABRI®, HERCEPTIN®, and […]® were also prepared."}, "[6]": {"system": "TYSABRI®", "test": "Viscosity of concentrated aqueous solutions of TYSABRI® (mVROC microfluidic viscometer)", "type": "physicochemical", "details": "organophosphate 0.25M"}, "[7]": {"system": "therapeutically relevant mAbs", "details": "in some cases; Table 3", "protocol": "All viscosities of well-mixed aqueous mAb solutions were measured using either a mVROC microfluidic viscometer (RheoSense) or a DV2T cone and plate viscometer (Brookfield; “C & P”) after a 5 minute equilibration at 25° C. […] The mVROC viscometer was equipped with an “A” or “B” chip, each manufactured with a 50 micron channel. Typically, 0.10 mL of protein solution was back-loaded into a gastight microlab instrument syringe (Hamilton; 100 μL), affixed to the chip, and measured at multiple flow rates, approximately 20%, 40%, and 60% of the maximum pressure for each chip. […] An average absolute viscosity and standard deviation was then calculated from at least these three measurements. The C & P viscometer was equipped with a CPE40 or CPE52 spindle (cone angle of 0.8° and 3.0°, respectively) and 0.50 mL samples were measured at multiple shear rates between 2 and 400 s^−1. Specifically, samples were measured for 30 seconds each at 22.58, 24.38, 26.25, 28.13, 30, 31.88, 45, 67.5, 90, 112.5, 135, 157.5, 180, 202.5, 247, 270, 292.5, 315, 337.5, 360, 382, 400 s^−1, starting at a shear rate that gave at least 10% torque, and continuing until instrument torque reached 100%. An extrapolated zero-shear viscosity was then determined from a plot of dynamic viscosity versus shear rate for the samples measured on a DV2T cone and plate viscometer. […]"}, "[8]": {"system": "respiratory syncytial virus", "details": "two Phase III clinical trials in the pediatric population; cited from earlier work"}, "[9]": {"details": "[Excipient] 0.10 M, [mAb] 217 mg/mL, 25° C., pH 7"}}, "note": "Where “and” joins values, the source holds several entries; their conditions need not be identical. Equal entries are not always repeated.", "data": [{"compound": "Nc1ncnc2c1ncn2[C@@H]1O[C@H](COP(=O)(O)OP(=O)(O)O)[C@@H](O)[C@H]1O", "note": "[ADP, Adenosine Diphosphate]", "values": [{"measurement": "Viscosity", "setting": "[1]; [Excipient] 0.10 M, [mAb] 215 mg/mL, 25° C., pH 7", "value": "76.6 ± 2.2", "unit": "cP"}]}, {"compound": "Nc1ncnc2c1ncn2[C@@H]1O[C@H](COP(=O)(O)O)[C@@H](O)[C@H]1O", "note": "[AMP, Adenosine Monophosphate]", "values": [{"measurement": "Viscosity", "setting": "[1]; [Excipient] 0.10 M, [mAb] 206 mg/mL, 25° C., pH 7", "value": "63.2 ± 1.6", "unit": "cP"}]}, {"compound": "Nc1ncnc2c1ncn2[C@@H]1O[C@H](COP(=O)(O)OP(=O)([O-])OP(=O)([O-])O)[C@@H](O)[C@H]1O.[Na+].[Na+]", "note": "[ATP, adenosine triphosphate]", "values": [{"measurement": "Viscosity", "setting": "[1]; [Excipient] 0.10 M, [mAb] 209 mg/mL, 25° C., pH 7", "value": "52.3 ± 2.3", "unit": "cP"}, {"measurement": "Viscosity", "setting": "[1]; [9]", "value": "80.7 ± 7.1", "unit": "cP"}]}, {"compound": "Nc1nc2c(ncn2[C@@H]2O[C@H](COP(=O)(O)OP(=O)(O)OP(=O)(O)O)[C@@H](O)[C@H]2O)c(=O)[nH]1", "note": "[GTP]", "values": [{"measurement": "Viscosity", "setting": "[1]; [Excipient] 0.10 M, [mAb] 205 mg/mL, 25° C., pH 7", "value": "150 ± 12", "unit": "cP"}]}, {"compound": "CN(CC(=O)O)C(=N)NP(=O)(O)O", "note": "[Phosphocreatine]", "values": [{"measurement": "Viscosity", "setting": "[1]; [Excipient] 0.25 M, [mAb] 231 mg/mL, 25° C., pH 7", "value": ">>200 cP"}]}, {"compound": "C=C(OP(=O)(O)O)C(=O)O", "note": "[Phosphoenol pyruvate]", "values": [{"measurement": "Viscosity", "setting": "[1]; [Excipient] 0.25 M, [mAb] 193 mg/mL, 25° C., pH 7", "value": ">>200 cP"}]}, {"compound": "Cc1ncc(C[n+]2csc(CCOP(=O)(O)OP(=O)(O)O)c2C)c(N)n1.[Cl-]", "note": "[TPP, thiamine pyrophosphate]", "values": [{"measurement": "Viscosity reducing ability among the organophosphates examined", "setting": "[1]; Table 1, biosimilar AVASTIN®", "value": "greatest viscosity reducing ability"}, {"measurement": "Viscosity", "setting": "[1]; Table 2, [Excipient] 0.10 M, [biosimilar AVASTIN®] 176 mg/mL", "value": "21.1 ± 1.7", "unit": "cP"}, {"measurement": "Viscosity", "setting": "[1]; Table 2, [Excipient] 0.30 M, [biosimilar AVASTIN®] 191 mg/mL", "value": "129 ± 5", "unit": "cP"}, {"measurement": "Viscosity", "setting": "[1]; Table 3, Biosimilar AVASTIN® 216 mg/mL, organophosphate 0.1M", "value": "47.6 ± 2.7", "unit": "cP"}, {"measurement": "Viscosity", "setting": "[1]; [Excipient] 0.10 M, [mAb] 201 mg/mL, 25° C., pH 7", "value": "34.6 ± 2.1", "unit": "cP"}, {"measurement": "Viscosity", "setting": "[1]; [Excipient] 0.10 M, [mAb] 216 mg/mL, 25° C., pH 7", "value": "47.6 ± 2.7", "unit": "cP"}, {"measurement": "Viscosity", "setting": "[1]; [Excipient] 0.25 M, [mAb] 210 mg/mL, 25° C., pH 7", "value": "44.5 ± 0.9", "unit": "cP"}, {"measurement": "Viscosity", "setting": "[2]; REMICADE® 158 mg/mL, organophosphate 0.10M", "value": "100 ± 9", "unit": "cP"}, {"measurement": "Viscosity", "setting": "[2]; REMICADE® 232 mg/mL, organophosphate 0.25M", "value": "1773 ± 304", "unit": "cP"}, {"measurement": "Viscosity", "setting": "[3]; HERCEPTIN® 240 mg/mL", "value": "156 ± 3", "unit": "cP"}, {"measurement": "Viscosity", "setting": "[4]", "value": "55.6 ± 4.8", "unit": "cP"}, {"measurement": "Viscosity", "setting": "[5]; Biosimilar RITUXAN® 193 mg/mL", "value": "102 ± 16", "unit": "cP"}]}, {"compound": "Cc1ncc(C[n+]2csc(CCOP(=O)(O)OP(=O)([O-])O)c2C)c(N)n1.Cc1nccn1CCCN", "note": "[TPP-APMI, thiamine pyrophosphate 1-(3-aminopropyl)-2-methyl-1H-imidazole]", "values": [{"measurement": "Viscosity", "setting": "[1]; Table 2, [Excipient] 0.10 M, [biosimilar AVASTIN®] 191 mg/mL", "value": "23.2 ± 0.9", "unit": "cP"}, {"measurement": "Viscosity", "setting": "[1]; Table 2, [Excipient] 0.20 M, [biosimilar AVASTIN®] 180 mg/mL", "value": "20.9 ± 0.4", "unit": "cP"}, {"measurement": "Viscosity", "setting": "[1]; Table 2, [Excipient] 0.50 M, [biosimilar AVASTIN®] 180 mg/mL", "value": "111 ± 1", "unit": "cP"}, {"measurement": "Viscosity", "setting": "[2]; REMICADE® 223 mg/mL, organophosphate 0.25M", "value": "316 ± 11", "unit": "cP"}, {"measurement": "Viscosity", "setting": "[3]; HERCEPTIN® 221 mg/mL", "value": "60.5 ± 0.3", "unit": "cP"}, {"measurement": "Viscosity", "setting": "[6]; TYSABRI® 238 mg/mL", "value": "76.3 ± 3.2", "unit": "cP"}]}, {"compound": "Nc1ncnc2c1ncn2[C@@H]1O[C@@H]2COP(=O)(O)OC2C1O", "note": "(some centres unmarked) [cAMP-Tris, cyclic adenosine monophosphate]", "values": [{"measurement": "Viscosity", "setting": "[1]; Table 2, [Excipient] 0.40 M, [biosimilar AVASTIN®] 176 mg/mL", "value": "39.2 ± 4.3", "unit": "cP"}, {"measurement": "Viscosity", "setting": "[1]; Table 2, [Excipient] 0.50 M, [biosimilar AVASTIN®] 178 mg/mL", "value": "66.1 ± 0.4", "unit": "cP"}, {"measurement": "Viscosity", "setting": "[1]; Table 3, Biosimilar AVASTIN® 216 mg/mL, organophosphate 0.25M", "value": "85.7 ± 10.7", "unit": "cP"}, {"measurement": "Viscosity", "setting": "[1]; [Excipient] 0.25 M, [mAb] 209 mg/mL, 25° C., pH 7", "value": "62.1 ± 1.8", "unit": "cP"}, {"measurement": "Viscosity", "setting": "[1]; [Excipient] 0.25 M, [mAb] 216 mg/mL, 25° C., pH 7", "value": "85.7 ± 10.7", "unit": "cP"}, {"measurement": "Viscosity", "setting": "[3]; HERCEPTIN® 235 mg/mL", "value": "79.5 ± 2.7", "unit": "cP"}, {"measurement": "Viscosity", "setting": "[6]; TYSABRI® 227 mg/mL", "value": "80.1 ± 2.4", "unit": "cP"}, {"measurement": "Viscosity", "setting": "[5]; Biosimilar RITUXAN® 199 mg/mL", "value": "62.6 ± 1.7", "unit": "cP"}, {"measurement": "Reduction of viscosity", "setting": "[7]", "value": "up to 9 fold"}]}, {"compound": "Nc1ncnc2c1ncn2[C@H]1C[C@H](O)[C@@H](COP(=O)(O)OP(=O)(O)OP(=O)(O)O)O1", "note": "[dATP-Tris, deoxyadenosine triphosphate]", "values": [{"measurement": "Viscosity", "setting": "[1]; [Excipient] 0.10 M, [mAb] 196 mg/mL, 25° C., pH 7", "value": "127 ± 0.2", "unit": "cP"}]}, {"compound": "Nc1ccn([C@H]2C[C@H](O)[C@@H](COP(=O)(O)OP(=O)(O)OP(=O)(O)O)O2)c(=O)n1", "note": "[dCTP-Tris, deoxycytidine triphosphate]", "values": [{"measurement": "Viscosity", "setting": "[1]; [9]", "value": "325 ± 13", "unit": "cP"}]}, {"compound": "Nc1nc2c(ncn2[C@H]2CC(O)[C@@H](COP(=O)(O)OP(=O)(O)OP(=O)(O)O)O2)c(=O)[nH]1", "note": "(some centres unmarked) [dGTP-Tris, deoxyguanosine triphosphate]", "values": [{"measurement": "Viscosity", "setting": "[1]; [9]", "value": "238 ± 31", "unit": "cP"}]}, {"compound": "Cc1cn([C@H]2CC(O)[C@@H](COP(=O)(O)OP(=O)(O)OP(=O)(O)O)O2)c(=O)[nH]c1=O", "note": "(some centres unmarked) [dTTP-Tris, deoxythymidine triphosphate]", "values": [{"measurement": "Viscosity", "setting": "[1]; [Excipient] 0.10 M, [mAb] 221 mg/mL, 25° C., pH 7", "value": "207 ± 6", "unit": "cP"}]}, {"compound": "nicotinamide adenine dinucleotide phosphate [NADP]", "values": [{"measurement": "Viscosity", "setting": "[1]; [Excipient] 0.10 M, [mAb] 204 mg/mL, 25° C., pH 7", "value": "165 ± 23", "unit": "cP"}, {"measurement": "Viscosity", "setting": "[1]; [Excipient] 0.25 M, [mAb] 186 mg/mL, 25° C., pH 7", "value": "242 ± 16", "unit": "cP"}]}, {"compound": "palivizumab: humanized mAb directed against an epitope in the A antigenic site of the F protein of respiratory syncytial virus", "values": [{"measurement": "Reduction of the risk of hospitalization due to respiratory syncytial virus infection", "setting": "[8]", "value": "55% and 45%"}]}]}
